These results are taken from US12227517B2, “Pyridazinyl-thiazolecarboxamide compound” (Astellas Pharma Inc., priority 2019, dated 2025).

For orientation: IC50 means the concentration needed to halve the response being measured.

Structures can show the parent of a compound that is named as a salt.

human recombinant DGK ξ, sequence (Q13574 whole entry): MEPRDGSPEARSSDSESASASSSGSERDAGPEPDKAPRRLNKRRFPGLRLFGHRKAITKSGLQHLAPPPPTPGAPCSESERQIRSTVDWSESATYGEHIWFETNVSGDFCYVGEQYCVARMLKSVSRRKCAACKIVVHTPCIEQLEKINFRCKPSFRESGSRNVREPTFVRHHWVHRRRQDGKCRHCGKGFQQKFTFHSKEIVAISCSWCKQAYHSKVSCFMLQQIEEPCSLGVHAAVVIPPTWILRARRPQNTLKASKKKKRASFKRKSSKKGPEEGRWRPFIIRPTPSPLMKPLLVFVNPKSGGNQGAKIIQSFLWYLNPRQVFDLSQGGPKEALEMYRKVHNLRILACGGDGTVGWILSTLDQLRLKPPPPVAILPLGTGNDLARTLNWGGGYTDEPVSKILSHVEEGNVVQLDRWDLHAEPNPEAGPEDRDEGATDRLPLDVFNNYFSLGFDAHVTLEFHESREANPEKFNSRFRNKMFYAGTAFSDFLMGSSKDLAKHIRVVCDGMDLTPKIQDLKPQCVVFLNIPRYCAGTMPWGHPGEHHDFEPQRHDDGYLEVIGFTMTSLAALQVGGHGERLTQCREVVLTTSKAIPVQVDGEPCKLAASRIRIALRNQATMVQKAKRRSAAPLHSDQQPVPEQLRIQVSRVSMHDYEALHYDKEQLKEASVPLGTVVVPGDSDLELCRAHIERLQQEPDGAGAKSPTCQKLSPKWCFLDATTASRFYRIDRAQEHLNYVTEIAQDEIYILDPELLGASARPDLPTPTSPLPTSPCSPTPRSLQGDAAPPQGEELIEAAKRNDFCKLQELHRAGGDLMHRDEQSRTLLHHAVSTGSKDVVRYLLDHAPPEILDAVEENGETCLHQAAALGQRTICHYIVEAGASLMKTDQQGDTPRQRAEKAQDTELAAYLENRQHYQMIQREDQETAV

The assay addresses human recombinant DGK ξ (Homo sapiens (Human), UniProt Q13574). Nature of the assay: Evaluation of DGK ξ inhibitory effect (ADP-Glo Kinase Assay). Type of assay: biochemical. The protocol:
Test Example 1: Evaluation of DGK ξ Inhibitory Effect
The inhibitory effect of a test compound on human recombinant DGK ξ (Carna Biosciences, Inc., 12-410-20N) was examined by the following method in which detection is performed with ADP-Glo™ Kinase Assay (Promega Corporation).
To a 384-well plate (Greiner Bio-One Co., Ltd.), 3 μL of a […] dissolved in an assay buffer (40 mM Tris-HCl pH 7.5, 10 mM MgCl2, 1 mM dithiothreitol (DTT) and 0.1 mg/mL bovine serum albumin (BSA)) (90 ng/mL) was added, and 3 μL of the test compound diluted with the same assay buffer was added so that an intended final concentration was obtained. The mixture was left standing at room temperature for 15 minutes, 3 μL of a substrate (150 μM 1-oleoyl-2-acetyl-sn-glycerol (Sigma-Aldrich Co. LLC.), 480 μM phosphatidylserine (Avanti Polar Lipids, Inc.) and 150 μM UltraPure-ATP (attached to ADP-Glo)) was then added, and the mixture was left standing at room temperature for 30 minutes to react. Thereafter, 3 μL of an ADP-Glo Reagent was added, and the mixture was left standing at room temperature for 40 minutes to stop the enzyme reaction. Further, 6 μL of a Kinase-Detection Reagent was added, the mixture was left standing at room temperature for 30 minutes, and the luminescence was then measured using ARVO X3 (PerkinElmer, Inc.). The half maximal inhibitory concentration (IC50) was calculated by Sigmoid-Emax model non-linear regression analysis, where the signal value in solvent treatment was set to 0% inhibition and the signal value without addition of the DGK ξ enzyme was set to 100% inhibition. […] In the table, Ex represents the number of each Example described below. Also, in the table, compound C (cpd. C) represents the test compound of the Example 199 described in the international publication WO 2008/054702.
With `NC[C@@H]1CCCN(c2c(NC(=O)c3csc(-c4ccnnc4)n3)ccc(Oc3ccccc3)c2C(F)(F)F)C1` [Example 84, N-{2-[(3S)-3-(aminomethyl)piperidin-1-yl]-4-phenoxy-3-(trifluoromethyl)phenyl}-2-(pyridazin-4-yl)-1,3-thiazole-4-carboxamide mono[(2E)-but-2-enedioate]], the IC50 came to 6 nM.
As for `COCCN1CCC2(CCCN(c3c(NC(=O)c4csc(-c5ccnnc5)n4)ccc(Oc4ccccc4)c3C(F)(F)F)C2)CC1` [Example 61], the figure is 3 nM; as for `N#Cc1ccccc1Oc1ccc(NC(=O)c2csc(-c3ccnnc3)n2)c(N2CCC[C@@H](CN)C2)c1C(F)(F)F` [Example 38], 3 nM.
As for `Cn1nccc1Oc1ccc(NC(=O)c2csc(-c3ccnnc3)n2)c(N2CCC[C@@H](CN)C2)c1C(F)(F)F` [Example 44], the figure is 19 nM.
As for `NC[C@@H]1CCCN(c2c(NC(=O)c3csc(-c4ccnnc4)n3)ccc(Oc3c(F)cccc3F)c2C(F)(F)F)C1` [Example 22], the figure is 5 nM.
As to `O=C(Nc1ccc(Oc2ccccc2)c(C(F)(F)F)c1C1=CCN(Cc2cc[nH]n2)CC1)c1csc(-c2ccnnc2)n1` [Example 2], the half-inhibitory concentration (IC50) is 53 nM.
In the case of `N[C@@H]1CCN2CCN(c3c(NC(=O)c4csc(-c5ccnnc5)n4)ccc(Oc4ccccc4)c3C(F)(F)F)C[C@H]12` [Example 79] it was 47 nM; in that of `CNCC[C@H]1CCCN1c1c(NC(=O)c2csc(-c3ccnnc3)n2)ccc(Oc2ccccc2)c1C(F)(F)F` [Example 46], 40 nM.
In the case of `COc1c(Oc2ccccc2)ccc(NC(=O)c2csc(-c3ccnnc3)n2)c1N1CCC[C@@H](CN)C1` [Example 68] it was 5 nM.
In the case of `O=C(Nc1ccc(OC2CC2)c(C(F)(F)F)c1C1=CCN(Cc2cc[nH]n2)CC1)c1csc(-c2ccnnc2)n1` [Example 3] it was 20 nM; in that of `O=C(Nc1ccc(OC2CCC2)c(F)c1C1=CCN(Cc2cc[nH]n2)CC1)c1csc(-c2ccnnc2)n1` [Example 4], 50 nM; in that of `O=C(Nc1ccc(Oc2ccccc2)c(C(F)(F)F)c1N1CCCC2(CCNCC2)C1)c1csc(-c2ccnnc2)n1` [Example 42], 23 nM.
As for `CNC[C@@H]1CCCN(c2c(NC(=O)c3csc(-c4ccnnc4)n3)ccc(Oc3ccccc3F)c2C(F)(F)F)C1` [Example 83, N-[4-(2-fluorophenoxy)-2-{(3S)-3-[(methylamino)methyl]piperidin-1-yl}-3-(trifluoromethyl)phenyl]-2-(pyridazin-4-yl)-1,3-thiazole-4-carboxamide mono[(2E)-but-2-enedioate]], the IC50 turned out to be 5 nM.
As for `CN(C)C[C@@H]1CCCN(c2c(NC(=O)c3csc(-c4ccnnc4)n3)ccc(Oc3ccccc3)c2C(F)(F)F)C1` [Example 55], the figure is 99 nM; as for `CN1CCN(c2c(NC(=O)c3csc(-c4ccnnc4)n3)ccc(Oc3ccccc3)c2C(F)(F)F)C[C@@H]1CN` [Example 8], 9 nM; as for `NC[C@H]1CN(c2c(NC(=O)c3csc(-c4ccnnc4)n3)ccc(Oc3ccccc3)c2C(F)(F)F)CCO1` [Example 27], 90 nM.
As for `Cn1ccc(Oc2ccc(NC(=O)c3csc(-c4ccnnc4)n3)c(N3CCC[C@@H](CN)C3)c2C(F)(F)F)n1` [Example 17], the figure is 13 nM; as for `O=C(Nc1cc(F)c(OC2CC2)c(F)c1C1=CCN(Cc2cc[nH]n2)CC1)c1csc(-c2ccnnc2)n1` [Example 5], 48 nM.
Consider `NC[C@@H]1CCCN(c2c(NC(=O)c3csc(-c4ccnnc4)n3)ccc(Oc3cccc(F)c3)c2C(F)(F)F)C1` [Example 85], for which the IC50 was found to be 15 nM.
In the case of `CNC[C@@H]1CCCN(c2c(NC(=O)c3csc(-c4ccnnc4)n3)ccc(Oc3cccc(F)c3)c2C(F)(F)F)C1` [Example 51], the half-maximal inhibitory concentration (IC50) came to 16 nM.
In the case of `CNC[C@@H]1CCCN(c2c(NC(=O)c3csc(-c4ccnnc4)n3)ccc(Oc3ccccc3Cl)c2C(F)(F)F)C1` [Example 36] it was 13 nM; in that of `NC[C@@H]1CCCN(c2c(NC(=O)c3csc(-c4ccnnc4)n3)ccc(Oc3ccc(F)cc3)c2C(F)(F)F)C1` [Example 41], 11 nM.
In the case of `CN(C)C[C@H]1CCCN(c2c(NC(=O)c3csc(-c4ccnnc4)n3)ccc(Oc3ccccc3)c2C(F)(F)F)C1` [Example 54, N-[2-{(3R)-3-[(dimethylamino)methyl]piperidin-1-yl}-4-phenoxy-3-(trifluoromethyl)phenyl]-2-(pyridazin-4-yl)-1,3-thiazole-4-carboxamide dihydrochloride] it was 17 nM.
In the case of `CN[C@@H]1CCN2CCN(c3c(NC(=O)c4csc(-c5ccnnc5)n4)ccc(OC4CC4)c3C(F)(F)F)C[C@@H]12` [Example 77] it was 2 nM; in that of `Cc1c(Oc2ccccc2)ccc(NC(=O)c2csc(-c3ccnnc3)n2)c1N1CCC[C@@H](CN)C1` [Example 72], 18 nM.
Take `CN[C@@H]1CCN2CCN(c3c(NC(=O)c4csc(-c5ccnnc5)n4)ccc(Oc4ccccc4)c3C(F)(F)F)C[C@@H]12` [Example 73]: the 50% inhibitory concentration (IC50) amounted to 0.7 nM.
In the case of `CNC[C@@H]1CN(c2c(NC(=O)c3csc(-c4ccnnc4)n3)ccc(Oc3ccccc3)c2C(F)(F)F)CCO1` [Example 26] it was 46 nM.
On to `NC[C@@H]1CCCN(c2c(NC(=O)c3csc(-c4ccnnc4)n3)ccc(OC3CCCC3)c2C(F)(F)F)C1` [Example 15], for which the 50% inhibitory concentration (IC50) worked out at 7 nM.
As for `Cc1c(OC2CC2)ccc(NC(=O)c2csc(-c3ccnnc3)n2)c1N1CCC[C@@H](CN)C1` [Example 71], the figure is 44 nM.
In the case of `CNCC1CCCN(c2c(NC(=O)c3csc(-c4ccnnc4)n3)ccc(Oc3ccccc3)c2C(F)(F)F)C1` (stereo not drawn) [Example 64, N-[2-{3-[(methylamino)methyl]piperidin-1-yl}-4-phenoxy-3-(trifluoromethyl)phenyl]-2-(pyridazin-4-yl)-1,3-thiazole-4-carboxamide] it was 30 nM; in that of `N[C@H]1CCN2CCN(c3c(NC(=O)c4csc(-c5ccnnc5)n4)ccc(Oc4ccccc4)c3C(F)(F)F)C[C@H]12` [Example 75], 6 nM.
In the case of `CNC[C@H]1CCCN(c2c(NC(=O)c3csc(-c4ccnnc4)n3)ccc(Oc3ccccc3)c2C(F)(F)F)C1` [Example 50] it was 23 nM; in that of `NC[C@@H]1CCCN(c2c(NC(=O)c3csc(-c4ccnnc4)n3)ccc(C(=O)c3ccccc3)c2C(F)(F)F)C1` [Example 70], 7 nM.
Regarding `CN(C)C[C@@H]1CCCN(c2c(NC(=O)c3csc(-c4ccnnc4)n3)cc(F)c(Oc3ccccc3)c2F)C1` [Example 57], the IC50 came to 240 nM.
As for `CN1CCC2(CC1)CN(c1c(NC(=O)c3csc(-c4ccnnc4)n3)ccc(Oc3ccccc3)c1C(F)(F)F)CCO2` [Example 1, N-[2-(9-methyl-1-oxa-4,9-diazaspiro[5.5]undecan-4-yl)-4-phenoxy-3-(trifluoromethyl)phenyl]-2-(pyridazin-4-yl)-1,3-thiazole-4-carboxamide], the figure is 3 nM.
As to `NC[C@@H]1CCCN(c2c(NC(=O)c3csc(-c4ccnnc4)n3)ccc(-c3ccccc3)c2C(F)(F)F)C1` [Example 28], the half-inhibitory concentration (IC50) was 42 nM.
In the case of `CN(C)CC[C@@H]1CN(c2c(NC(=O)c3csc(-c4ccnnc4)n3)ccc(Oc3ccccc3)c2C(F)(F)F)CCO1` [Example 58] it was 144 nM; in that of `CNC[C@@H]1CCCN(c2c(NC(=O)c3csc(-c4ccnnc4)n3)ccc(Oc3ccc(F)cc3)c2C(F)(F)F)C1` [Example 43], 36 nM; in that of `O=C(Nc1ccc(Oc2ccccc2)c(C(F)(F)F)c1N1CCOC2(CCN(CCO)CC2)C1)c1csc(-c2ccnnc2)n1` [Example 60], 3 nM.
In the case of `CNC[C@H]1CCCN1c1c(NC(=O)c2csc(-c3ccnnc3)n2)ccc(Oc2ccccc2)c1C(F)(F)F` [Example 37] it was 26 nM.
As for `NC[C@@H]1CCCN(c2c(NC(=O)c3csc(-c4ccnnc4)n3)ccc(Oc3ccccc3F)c2C(F)(F)F)C1` [Example 86], the figure is 3 nM.
Take `CNC1(C(N)=O)CCN(c2ccccc2NC(=O)c2csc(-c3ccnnc3)n2)CC1` [cpd. C, reference compound]: the 50% inhibitory concentration (IC50) was above 2000 nM.
As for `CCNC[C@@H]1CCCN(c2c(NC(=O)c3csc(-c4ccnnc4)n3)ccc(Oc3cccc(F)c3)c2C(F)(F)F)C1` [Example 52], the figure is 23 nM; as for `NCC[C@@H]1CN(c2c(NC(=O)c3csc(-c4ccnnc4)n3)ccc(Oc3ccccc3)c2C(F)(F)F)CCO1` [Example 30], 39 nM.
On to `NC[C@@H]1CCCN(c2c(NC(=O)c3csc(-c4ccnnc4)n3)ccc(S(=O)(=O)c3ccccc3)c2C(F)(F)F)C1` [Example 66], for which the IC50 was 32 nM.
In the case of `CNC[C@H]1CN(c2c(NC(=O)c3csc(-c4ccnnc4)n3)ccc(Oc3ccccc3)c2C)CCN1C` [Example 65] it was 12 nM; in that of `NC[C@@H]1CN(c2c(NC(=O)c3csc(-c4ccnnc4)n3)ccc(Oc3ccccc3)c2C(F)(F)F)CCO1` [Example 25], 42 nM; in that of `NC[C@H]1CCCN1c1c(NC(=O)c2csc(-c3ccnnc3)n2)ccc(Oc2ccccc2)c1C(F)(F)F` [Example 87], 20 nM.
